Assay results reported in US20020004958A1, “Dyeing substrates” (Novozymes A/S, priority 1996, published 2002).
Entries after “also recorded” stand apart in the source; their conditions may differ.

Experiments:
[1] = background statement; cited from earlier work
[2] = tested on: Salmonella tphimurium TA 98; assay: Ames test for mutagenicity, with and without S9-mix; assay type: cell-based; conditions: 100 μl of 50, 100 and 200 mM solutions in DMSO, with and without rat liver S9-mix
Protocol: The Ames test (Maron and Ames (1983)) was used to determine the mutagenic properties of the compounds. Nutrient media were prepared in the manner described by Venitt and Parry (1984). To 3×2 ml melted agar at 45° C. were added 100 μl of 50, 100 and 200 mM of solutions of the compounds dissolved in DMSO. By means of a pipette 100 μl of a well-grown culture of Salmonella tphimurium TA 98 (BIO-TEST gl. skolevej 47, 6731 Tiaereborg) were added to the same test-tube. The bacteria contain a frameshift mutation on the histinol-dehydrogenase gene and require histidin in order to grow. Mutagenic aromatic amines can cause the bacteria to mutate to His+ and they can then grow on the nutrient medium. The number of colonies after incubation therefore give a quantitative measure of the ability of the added compound to cause mutation. In all trials spontaneous mutations take place in the absence of a mutagen. These provide a measure of “background” mutation.
All trials were therefore carried out both with and without the addition of “S9-mix” from the livers of rats, this contains the P450 system. 0.5 ml of […] was added to each test-tube. The criteria for mutation are that increasing concentrations of the compound under investigation give a marked increase in the number of His+ mutants.

[3] = target: T1, horseradish peroxidase type VI-A (Armoracia rusticana, UniProt P00433); assay: Peroxidase-catalysed oxidation of substrates, initial velocity (absorbency 492 nm) vs substrate concentration, Michaelis/Menten; assay type: biochemical; conditions: for Kkat: Vmax/[E], worked out from peroxidase of 50,000 g/mol; for Properties as substrate for peroxidase (in words): peroxidase/hydrogen peroxide system, compared with OPD or 3,4-DABA
T1 construct: purchased Sigma 6782
T1 sequence (P00433 31-338 limits assumed): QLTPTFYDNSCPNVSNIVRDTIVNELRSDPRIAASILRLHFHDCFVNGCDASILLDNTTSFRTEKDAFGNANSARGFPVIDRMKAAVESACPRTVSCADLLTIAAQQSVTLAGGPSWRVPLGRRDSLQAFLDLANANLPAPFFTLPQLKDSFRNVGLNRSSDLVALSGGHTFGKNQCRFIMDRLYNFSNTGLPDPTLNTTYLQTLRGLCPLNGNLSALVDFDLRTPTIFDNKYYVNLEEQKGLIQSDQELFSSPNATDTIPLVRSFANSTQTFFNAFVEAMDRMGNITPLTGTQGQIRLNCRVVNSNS
Text: Absorbancy at 492 nm was used as a measure of the course of the reaction. The initial velocity was taken to be the absorbancy at 492 nm two minutes after the addition of the peroxidase to a mixture of the substrate and hydrogen peroxide in a buffer with a pH of 5.0. The wavelength of 492 nm was chosen because it is employed in the standard assay procedures for OPD.
By varying the concentration of the substrate and at the same time measuring the initial velocity of the reaction it is posible to apply the Michaelis/Menten equation to the system.
Under ideal conditions the values determined experimentally will approach the value of the expression: [formula]
where [S] is the concentration of the substrate, Vmax is the maximum initial […] which is reached in the particular assay. Km is defined as the concentration of the substrate at Vmax/2. A small Km value will therefore be characteristic for an enzyme system where a low concentration of the substrates produces saturation of the enzyme.
The expression implies that the initial velocity will increase with increasing concentration of the substrate, but the curve for the velocity will flatten out and approach Vmax for very high concentrations of the substrate. In actual fact the parameter Kkat be calculated as Vmax/[E] where [E] is the molar concentration of the enzyme in the reaction. Kkat is the same as min^−1 and reflects the activity of the enzyme in a saturated solution upon the substrate.
The following solutions were prepared for use in the enzyme assay:
A 50 mM phosphate/citrate buffer with a pH of 5.0 was made by mixing a 50 mm Na2HPO4 solution and a 50 mm solution of citric acid. The pH was measured while mixing was in progress.
15 μl of a 30% solution of hydrogen peroxide (PERHYDROL, Merck) was thinned down with 25 ml of the assay buffer.
The stabilizing buffer for peroxidase, i.e. a buffer which stabilizes the enzyme, was prepared according to the method of Olsen and Little (1983). A 0.1M Na-acetate buffer, which was 0.5M in terms of CaCl2 was adjusted to pH 5.6.
10 mg of horseradish peroxidase type VI-A (Sigma no. 6782) were dissolved in 10 ml of the stabilizing buffer. This was stored at −15° C.
The standard peroxidase solution was diluted to 1:1000 with the 10 ml assay-buffer solution in 10 μl standard solution.
0.5 mmol of each substrate in 5 ml DMF.
The standard solutions were diluted by 1:10 with the assay buffer. Before being used the substrate solutions were diluted by 1:10. 0.5 ml of the standard solution was thinned down with 4.5 ml of the assay buffer.
The concentration of the peroxidase was held constant at 50 ng/ml during the whole investigation. By using the volume of substrate and the volumes of 10 vol-% DMF solution as given in table 4 it was possible to employ a constant reaction volume and a constant concentration of DMF. For all measurements there was used 1550 μl buffer and 50 μl bench solution of peroxidase. The total volume is then as follows: 300 μI DMF and substrate solution, 1550 μl buffer, […] bench solution of peroxidase and 50 μl hydrogen peroxide solution. That is 2000 μl in total.
The results of the measurements of initial velocities are stated in units of absorbency and not in molar units. In order to be able to measure the “true” velocity of reaction it is necessary to isolate the oxidation product for each substrate and determine the molar extinction coefficient. The value of Kkat is worked out from 1 mole of peroxidase of 50,000 g/mol.

Kkat [3] | melting point [°C] | Compound | Properties as substrate for peroxidase (in words) [3] | other results
– | – | Nc1ccc(C(=O)O)cc1 [PABA, p-amino benzoic acid] | – | Toxicity (generally considered) [1]: non-toxic
– | – | Nc1ccccc1 [aniline] | – | Toxicity (generally considered) [1]: very toxic
2.2 * 10^8 1*mol^−1*min^−1 | 73 to 74 | CC(C)OC(=O)c1ccc(N)c(N)c1 [isopropyl ester, 3,4-diamino benzoic acid isopropyl ester] | significantly improved properties than 3,4-DABA | –
2.2 * 10^8 1*mol^−1*min^−1 | 108 to 109 | COC(=O)c1ccc(N)c(N)c1 [methyl ester, 3,4-diaminobenzoic acid methyl ester] | significantly improved properties than 3,4-DABA | –
2.7 * 10^8 1*mol^−1*min^−1 | 112 to 113 | CCOC(=O)c1ccc(N)c(N)c1 [ethyl ester, 3,4-diamino benzoic acid ethyl ester] | significantly improved properties than 3,4-DABA; also recorded: very high Vmax | –
2.0 * 10^8 1*mol^−1*min^−1 | – | Nc1ccc(C(=O)O)cc1N [3,4-DABA, 3,4-diamino benzoic acid] | considerably poorer substrate for peroxidase than is OPD; also recorded: higher Km-value at the same Vmax when compared with OPD | –
– | – | CCn1c(=NN=c2sc3cc(S(=O)(=O)O)ccc3n2CC)sc2cc(S(=O)(=O)O)ccc21 [ABTS, 2,2-azino-di (3-ethyl-benzo thiazolin-6-sulphonic acid)] | – | Mutagenicity (known) [1]: mutagent

Compound | Kkat [3] | melting point [°C] | Properties as substrate for peroxidase (in words) [3] | other results
Nc1ccccc1N [OPD, o-phenylendiamine] | 1.6 * 10^8 1*mol^−1*min^−1 | – | – | Mutagenic properties (His+ mutants with increasing concentration) [2]: has mutagenic properties; Carcinogenicity (known) [1]: carcinogenic; Mutagenicity (known) [1]: mutagenic; also recorded: not a direct mutagen
